This data set concerns human PKK mRNA. The data set is described as follows: Antisense inhibition of human PKK mRNA in HepaRG cells, 5,000 nM (Example 2). In kind it is cell-based. In outline:
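HepaRG cells, 20,000 per well, were electroporated with 5,000 nM MOE gapmer (phosphorothioate, 5-methylcytosine) and incubated about 24 hours. PKK mRNA was quantified by qRT-PCR with primer probe set RTS3454, normalized to RIBOGREEN total RNA, and expressed as percent inhibition versus untreated controls.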

Setting [1] is: Table 9 experiment, HepaRG cells, 20,000 cells per well, electroporation with 5,000 nM antisense oligonucleotide, approx. 24 hours, PKK mRNA by RT-PCR (RTS3454), relative to untreated control cells.
Where [2] appears, read: Table 10 experiment, HepaRG cells, 20,000 cells per well, electroporation with 5,000 nM antisense oligonucleotide, approx. 24 hours, PKK mRNA by RT-PCR (RTS3454), relative to untreated control cells.
Setting [3] is: HepaRG cells, 5,000 nM antisense oligonucleotide, 5-10-5 gapmers, Table 17.
The mark [4] stands for this setting: HepaRG cells, 5,000 nM antisense oligonucleotide, 5-10-5 gapmers, Table 16.
Setting [5] is: Table 8, HepaRG cells, electroporation with 5,000 nM antisense oligonucleotide, approx. 24 hours, PKK mRNA by RT-PCR (RTS3454), relative to untreated control cells.
Setting [6] is: Table 7, HepaRG cells, electroporation with 5,000 nM antisense oligonucleotide, approx. 24 hours, PKK mRNA by RT-PCR (RTS3454), relative to untreated control cells.
[7] abbreviates: human PKK mRNA, HepaRG cells, 5-10-5 motif oligonucleotides targeting SEQ ID NO: 1 and 10.
The mark [8] stands for this setting: HepaRG cells, electroporation with 5,000 nM antisense oligonucleotide, approximately 24 hours, PKK mRNA by RT-PCR (RTS3454), relative to untreated control cells, Table 5 experiment.
Where [9] appears, read: HepaRG cells, electroporation with 5,000 nM antisense oligonucleotide, approximately 24 hours, PKK mRNA by RT-PCR (RTS3454), relative to untreated control cells, Table 6 experiment.
[10] abbreviates: Table 13, human PKK mRNA in HepaRG cells, 5-10-5 gapmers.
[11] abbreviates: HepaRG cells, electroporation, 5,000 nM antisense oligonucleotide, approx. 24 hours, primer probe set RTS3454, relative to untreated control cells, Table 11.
Where [12] appears, read: HepaRG cells, electroporation, 5,000 nM antisense oligonucleotide, approx. 24 hours, primer probe set RTS3454, relative to untreated control cells, Table 12.
[13] abbreviates: HepaRG cells, 5,000 nM antisense oligonucleotide, human PKK mRNA, Table 18.
The mark [14] stands for this setting: human PKK mRNA in HepaRG cells, 5-10-5 gapmers, Table 14.

Strand notation (5' to 3'): a small letter for the sugar, then the base; units joined by * are phosphorothioate-linked, units joined directly phosphodiester-linked; [ ] holds rarer units or linkages, { } end groups; capitals alone tell only the bases. e = 2'-O-(2-methoxyethyl) (MOE); [5mC] = 5-methylcytosine; d = 2'-deoxy (DNA)

Consider “546330 (antisense eT*eT*eT*e[5mC]*eT*d[5mC]*d[5mC]*dT*dT*d[5mC]*dG*dA*dG*dA*dA*eG*e[5mC]*e[5mC]*e[5mC]*e[5mC]) [compound 546330]”, for which the “% inhibition” value reads like this: under setting [1], 55%; under setting [2], 67%.
On to “547724 (eG*eA*eT*eG*e[5mC]*dA*dT*d[5mC]*d[5mC]*dA*dA*d[5mC]*dA*d[5mC]*dT*eT*eA*e[5mC]*e[5mC]*e[5mC]; antisense) [compound 547724]”, for which, under setting [3], the “% inhibition” value was 16%.
As to “547687 (antisense eA*e[5mC]*eT*eG*eT*d[5mC]*d[5mC]*dT*dA*dT*dA*dA*d[5mC]*dT*dA*eT*eA*eT*e[5mC]*eA) [compound 547687]”, under setting [4], the “% inhibition” value was 41%.
On to “547443 (antisense e[5mC]*e[5mC]*eA*e[5mC]*eT*dG*dG*dT*dG*dT*d[5mC]*d[5mC]*dT*dA*dT*eG*eA*eG*eT*eG) [compound 547443]”, for which the “% inhibition” value under setting [5] is on record as 70%.
With “547414 (eT*eG*eG*eG*eA*dG*dT*dA*dA*dA*dG*dA*dA*dT*dA*eA*eG*eT*eG*eA; antisense) [compound 547414]”, the “% inhibition” value under setting [5] is 76%.
As for “546218 (antisense eT*eG*eG*eT*e[5mC]*d[5mC]*dG*dA*d[5mC]*dA*d[5mC]*dA*d[5mC]*dA*dA*eA*eA*eG*e[5mC]*eA) [compound 546218]”, the “% inhibition” value under setting [6] was determined as 71%.
With “547638 (eA*eT*eA*eA*e[5mC]*dA*dG*dT*dA*dT*d[5mC]*dA*d[5mC]*dT*dG*eT*eA*e[5mC]*eT*eA; antisense) [compound 547638]”, under setting [7], the “% inhibition” value amounted to 87%.
Turning to “547292 (antisense eT*eA*e[5mC]*eA*eT*dG*dG*dA*dA*dG*d[5mC]*dT*dA*d[5mC]*dA*eT*e[5mC]*e[5mC]*e[5mC]*e[5mC]) [compound 547292]”, the “% inhibition” value under setting [8] was determined as 60%.
Take “546199 (antisense eT*eG*eG*e[5mC]*eA*dT*dT*d[5mC]*dT*dT*d[5mC]*dA*dA*d[5mC]*dA*e[5mC]*eT*eG*e[5mC]*eT) [compound 546199]”: the “% inhibition” value under setting [9] was found to be 97%.
In the case of “547628 (antisense e[5mC]*eT*e[5mC]*eT*eA*d[5mC]*d[5mC]*dT*dA*dT*dA*dA*d[5mC]*dT*d[5mC]*eT*eA*eA*e[5mC]*eA) [compound 547628]”, the “% inhibition” value under setting [7] was 34%.
For “547660 (eA*eA*e[5mC]*eT*eA*dT*dA*dA*d[5mC]*dA*dG*dT*dA*dT*d[5mC]*eA*e[5mC]*e[5mC]*eG*eT; antisense) [compound 547660]”, under setting [7], the “% inhibition” value was determined as 68%.
Turning to “546220 (antisense eT*eA*eG*eG*eT*dG*d[5mC]*dA*dG*dA*dT*dG*dG*dT*d[5mC]*e[5mC]*eG*eA*e[5mC]*eA) [compound 546220]”, under setting [6], the “% inhibition” value turned out to be 71%.
“546803 (e[5mC]*e[5mC]*e[5mC]*e[5mC]*eA*dT*dA*d[5mC]*dA*dT*d[5mC]*dT*dA*dT*dG*e[5mC]*eA*eA*eA*eT; antisense) [compound 546803]”: the “% inhibition” value under setting [10] is on record as 40%.
For the substance “547296 (antisense eT*eG*e[5mC]*eA*e[5mC]*d[5mC]*dT*d[5mC]*dA*dT*d[5mC]*dT*dG*dG*d[5mC]*eA*eG*eT*eA*eT) [compound 547296]”, the “% inhibition” value under setting [8] was determined as 72%.
On the same count and under the same terms, as for “546131 (eA*eT*eG*eA*eA*d[5mC]*dG*dG*dT*d[5mC]*dT*dT*d[5mC]*dA*dA*eG*e[5mC]*eT*eG*eT; antisense) [compound 546131]”, the figure is 75%.
On to “547510 (antisense eA*eT*eG*eA*eG*dG*dA*d[5mC]*d[5mC]*d[5mC]*d[5mC]*d[5mC]*d[5mC]*dA*dG*eG*e[5mC]*eT*e[5mC]*eA) [compound 547510]”, for which the “% inhibition” value under setting [11] stood at 40%.
Take “547383 (eT*eT*e[5mC]*eT*eT*dT*dG*dT*dG*dA*d[5mC]*dT*d[5mC]*dG*dA*eT*eT*eT*eT*e[5mC]; antisense) [compound 547383]”: the “% inhibition” value under setting [6] turned out to be 37%.
For the substance “547486 (antisense eT*eG*e[5mC]*eA*eA*dA*d[5mC]*dT*dA*dA*dG*dG*dG*dA*d[5mC]*e[5mC]*eA*e[5mC]*e[5mC]*eT) [compound 547486]”, the “% inhibition” value amounted to 89% under setting [1] and 78% under setting [2].
For “546422 (eA*e[5mC]*eG*eG*eT*d[5mC]*dT*dT*d[5mC]*dA*dA*dG*d[5mC]*dT*dG*eT*eT*e[5mC]*eT*eA; antisense) [compound 546422]”, under setting [12], the “% inhibition” value turned out to be 72%.
Turning to “547547 (antisense eG*e[5mC]*eA*eT*eA*d[5mC]*dT*d[5mC]*dG*d[5mC]*d[5mC]*dT*dT*dT*dG*eT*eG*eA*eT*eG) [compound 547547]”, the “% inhibition” value under setting [12] was 42%.
As to “546500 (eT*eT*e[5mC]*e[5mC]*eA*dT*dG*d[5mC]*dA*dT*dA*d[5mC]*dT*d[5mC]*dG*e[5mC]*e[5mC]*eT*eT*eT; antisense) [compound 546500]”, the “% inhibition” value under setting [12] was found to be 46%.
For the substance “547328 (antisense eA*eT*eT*eT*eG*dA*dT*dG*dA*d[5mC]*d[5mC]*dA*d[5mC]*dA*dT*eT*eG*e[5mC]*eT*eT) [compound 547328]”, under setting [9], the “% inhibition” value was 40%.
Consider “548717 (DNA eA*e[5mC]*eT*dA*dG*dT*dT*dT*d[5mC]*d[5mC]*dT*dA*dT*eA*eA*e[5mC]*eT; antisense) [compound 548717]”, for which the “% inhibition” value under setting [13] is given as 0%.
Turning to “547330 (antisense e[5mC]*eT*eT*eA*eT*dT*dT*dG*dA*dT*dG*dA*d[5mC]*d[5mC]*dA*e[5mC]*eA*eT*eT*eG) [compound 547330]”, the “% inhibition” value under setting [9] worked out at 60%.
With “547506 (antisense eA*eG*eG*e[5mC]*eT*d[5mC]*dA*dG*dA*dA*dT*dT*dT*dG*dA*e[5mC]*eT*eT*eG*eA) [compound 547506]”, the “% inhibition” value under setting [11] is recorded as 78%.
Regarding “546850 (eT*eA*eT*e[5mC]*eA*d[5mC]*dT*dG*dT*d[5mC]*d[5mC]*dT*dA*dT*dA*eT*e[5mC]*eA*e[5mC]*eT; antisense) [compound 546850]”, the “% inhibition” value under setting [14] was 80%.
On to “547690 (antisense e[5mC]*eT*eG*eT*eA*dA*d[5mC]*dA*dA*dT*dA*dT*d[5mC]*dA*d[5mC]*eT*eG*eT*e[5mC]*e[5mC]) [compound 547690]”, for which the “% inhibition” value under setting [4] came to 76%.
For “546421 (eT*e[5mC]*eA*eA*eG*d[5mC]*dT*dG*dT*dT*d[5mC]*dT*dA*dA*dT*eG*eT*eG*eG*e[5mC]; antisense) [compound 546421]”, under setting [12], the “% inhibition” value stood at 71%.
“547446 (antisense eT*eT*eG*eT*eG*dA*dG*dA*dA*dA*dG*dG*dT*dG*dT*eA*eT*e[5mC]*eT*eT) [compound 547446]”: the “% inhibition” value under setting [5] turned out to be 84%.
For the substance “546494 (eG*e[5mC]*eA*eT*eA*d[5mC]*dT*d[5mC]*dG*d[5mC]*d[5mC]*dT*dT*dT*dG*eT*eG*eA*e[5mC]*eT; antisense) [compound 546494]”, the “% inhibition” value under setting [12] is recorded as 67%.
For the substance “547746 (eG*eT*eT*eG*eG*dT*dG*dG*d[5mC]*dG*dG*dG*dA*dT*d[5mC]*eG*eG*eT*eG*eG; antisense) [compound 547746]”, the “% inhibition” value under setting [3] is 0%.
In the case of “547667 (eT*eA*eT*e[5mC]*eA*d[5mC]*dT*dG*dT*dA*d[5mC]*d[5mC]*dT*dA*dT*eA*eA*e[5mC]*eT*eA; antisense) [compound 547667]”, the “% inhibition” value under setting [7] was 55%.
Regarding “547406 (e[5mC]*eT*e[5mC]*e[5mC]*eT*d[5mC]*d[5mC]*dA*dA*dA*dG*dT*d[5mC]*dA*dA*e[5mC]*eT*e[5mC]*e[5mC]*e[5mC]; antisense) [compound 547406]”, the “% inhibition” value under setting [6] is given as 81%.
As to “546174 (antisense e[5mC]*e[5mC]*eT*eG*eT*dT*d[5mC]*dG*dA*dT*dG*dT*dA*d[5mC]*dT*eT*eT*eT*eG*eG) [compound 546174]”, the “% inhibition” value under setting [9] was 74%.
As to “547737 (eT*eG*eG*eT*eG*dG*dT*dG*dG*dG*dA*dT*dT*dG*dG*eT*eG*e[5mC]*eT*eG; antisense) [compound 547737]”, under setting [3], the “% inhibition” value is listed as 59%.
For “547611 (antisense e[5mC]*eT*eG*eT*eA*dA*d[5mC]*dA*dG*dT*dA*dT*d[5mC]*dA*d[5mC]*eT*eG*eT*eA*e[5mC]) [compound 547611]”, the “% inhibition” value under setting [14] amounted to 71%.
Consider “547568 (eG*e[5mC]*eA*e[5mC]*e[5mC]*d[5mC]*dT*dT*dT*dT*d[5mC]*dA*dT*dT*dG*eA*eG*eA*eT*eT; antisense) [compound 547568]”, for which the “% inhibition” value under setting [10] is reported as 70%.
Regarding “548709 (DNA eG*eT*eA*d[5mC]*dT*dA*dG*dT*dT*dT*d[5mC]*d[5mC]*dT*eA*eT*eA; antisense) [compound 548709]”, the “% inhibition” value under setting [13] was determined as 0%.
Consider “546313 (antisense eG*eG*e[5mC]*eG*eA*dT*dA*dT*d[5mC]*dA*dT*dG*dA*dT*dT*e[5mC]*e[5mC]*e[5mC]*eT*eT) [compound 546313]”, for which the “% inhibition” value is on record as 60% under setting [1] and 75% under setting [2].

The values above are taken from patent publication US11840686B2, “Modulation of prekallikrein (PKK) expression” (Ionis Pharmaceuticals, Inc., priority 2013, dated 2023).
